The IC50 is the concentration needed to halve the response being measured.

Here are results for 6 compounds from paper PMC9865193, “Improvement of the Chemical Reactivity of Michael Acceptor of Ethacrynic Acid Correlates with Antiproliferative Activities” (Molecules, 2023).

The subject of test [1] is HL60 cells. Description: MTS cell growth inhibition assay, HL60. The class given is cell-based, human. To be noted: for IC50: Homo sapiens, HL-60, read-out: IC50 antiproliferative activity against HL60; for Selectivity index (SI) MRC5/HL60: ratio of IC50 MRC5/IC50 HL60. The source says: Based on a multiple target assay, all the prepared compounds (6–10) were first evaluated against HL60 leukemia cells to assess their in vitro antiproliferative activities. As mentioned in the Table 1, the obtained results were expressed as half-maximal inhibitory concentration (IC50) values with the average of at least three independent experiments and are compared to EA.
(§1) All cancer cell lines (HCT116, A549, MCF7, PC3, U87-MG, SKOV3, and MRC5) were obtained from the European Collection of Cell Culture (ECACC, Salisbury, UK) or from the American Type Culture Collection (Rockville, MD, USA) and were cultured according to the supplier’s instructions. Human HCT-116 colorectal carcinoma, MCF7 breast adenocarcinoma, PC3 prostate adenocarcinoma, A549 lung carcinoma, and SK-OV-3 ovary carcinoma were grown in Gibco McCoy’s 5A supplemented with 10% fetal calf serum (FCS) and 1% glutamine. HL60 myelogenous leukemia cells were grown in RPMI 1640 supplemented with 10% fetal calf serum (FCS) and 1% glutamine. U87-MG glioblastoma and human MRC-5 cells were grown in Gibco medium DMEM supplemented with 10% fetal calf serum (FCS) and 1% glutamine. Cells were maintained at 37 °C in a humidified atmosphere containing 5% CO2. Cell growth inhibition was determined by an MTS assay according to the manufacturer’s instructions (Promega, Madison, WI, USA). Briefly, the cells were seeded in 96-well plates (2.5 × 10^3 cells/well) containing 100 μL of growth medium. After 24 h of culture, the cells were treated with the tested compounds at 10 different final concentrations. After incubation for 72 h, 20 µL of Cell Titer 96®AQueous. One Solution Reagent was added for 2 h before recording absorbance at 490nm with a spectrophotometric plate reader. The concentration–response curves were generated with Graph Prism software and the 50% inhibition concentration values (IC50) were calculated from polynomial curves (four or five-parameter logistic equations).

Test [2] concerns HCT116 cells. Description: MTS cell growth inhibition assay, HCT116. The class given is cell-based, human. To be noted: for IC50: Homo sapiens, HCT-116, HCT116, 72 h of exposure, read-out: IC50 antiproliferative activity HCT116; for Selectivity index (SI) MRC5/HCT116: ratio of IC50 MRC5/IC50 HCT116. The procedure: (§2) Moreover, in order to evaluate the safety index, their effect on the proliferation of human lung fibroblasts (MCR5) as a normal cell line was also studied.
(§3) All cancer cell lines (HCT116, A549, MCF7, PC3, U87-MG, SKOV3, and MRC5) were obtained from the European Collection of Cell Culture (ECACC, Salisbury, UK) or from the American Type Culture Collection (Rockville, MD, USA) and were cultured according to the supplier’s instructions. […] U87-MG glioblastoma and human MRC-5 cells were grown in Gibco medium DMEM supplemented with 10% fetal calf serum (FCS) and 1% glutamine. Cells were maintained at 37 °C in a humidified atmosphere containing 5% CO2. Cell growth inhibition was determined by an MTS assay according to the manufacturer’s instructions (Promega, Madison, WI, USA). Briefly, the cells were seeded in 96-well plates (2.5 × 10^3 cells/well) containing 100 μL of growth medium. After 24 h of culture, the cells were treated with the tested compounds at 10 different final concentrations. After incubation for 72 h, 20 µL of Cell Titer 96®AQueous. One Solution Reagent was added for 2 h before recording absorbance at 490nm with a spectrophotometric plate reader.

The test system of test [3] is MRC5 cells. Kind of test: MTS cell growth inhibition assay, normal cell line MRC5. The class given is cell-based. To be noted: MRC5 normal human lung fibroblasts, 72 h of exposure; read-out: IC50 antiproliferative activity MRC5. How it is done:
as §2, §1

The subject of test [4] is PC3 cells. Kind of test: MTS cell growth inhibition assay, PC3. The class given is cell-based, human. To be noted: for IC50: Homo sapiens, PC-3, PC3, 72 h of exposure, read-out: IC50 antiproliferative activity PC3; for Selectivity index (SI) MRC5/PC3: ratio of IC50 MRC5/IC50 PC3. How it is done: as §2, §1
For test [5], the system named is U87-MG cells. Kind of test: MTS cell growth inhibition assay, U87-MG. The class given is cell-based, human. To be noted: for IC50: Homo sapiens, U-87 MG, U87-MG, 72 h of exposure, read-out: IC50 antiproliferative activity U87-MG; for Selectivity index (SI) MRC5/U87-MG: ratio of IC50 MRC5/IC50 U87-MG. The procedure:
as §2, §3

The test system of test [6] is A549 cells. Description: MTS cell growth inhibition assay, A549. The class given is cell-based, human. The conditions noted are these: for IC50: Homo sapiens, A549, 72 h of exposure, read-out: IC50 antiproliferative activity A549; for Selectivity index (SI) MRC5/A549: ratio of IC50 MRC5/IC50 A549. The procedure: as §2, §3
The subject of test [7] is MCF7 cells. Kind of test: MTS cell growth inhibition assay, MCF7. The class given is cell-based, human. To be noted: for IC50: Homo sapiens, MCF7, 72 h of exposure, read-out: IC50 antiproliferative activity MCF7; for Selectivity index (SI) MRC5/MCF7: ratio of IC50 MRC5/IC50 MCF7. The procedure:
as §2, §3

In test [8] the test system is SKOV3 cells. Description: MTS cell growth inhibition assay, SKOV3. The class given is cell-based, human. To be noted: for IC50: Homo sapiens, SK-OV-3, SKOV3, 72 h of exposure, read-out: IC50 antiproliferative activity SKOV3; for Selectivity index (SI) MRC5/SKOV3: ratio of IC50 MRC5/IC50 SKOV3. The procedure:
as §2, §1

As to `C=C(CC)C(=O)c1ccc(OCC(=O)O)cc1O` [Compound 6, 2-(3-Hydroxy-4-(2-methylenebutanoyl)phenoxy)acetic acid], the IC50 in test [1] (HL60 leukemia cells, 72 h, MTS) is above 10000 nM.

Regarding `COc1cccc2c1C(=O)c1c(O)c3c(c(O)c1C2=O)C[C@@](O)(C(=O)CO)C[C@@H]3O[C@H]1C[C@H](N)[C@H](O)[C@H](C)O1` [Doxorubicin, doxorubicin, reference compound], the IC50 in test [2] came out at 90 ± 3 nM; in test [3], 39.9 ± 1.22 nM; in test [4] it was 2.09 ± 0.03 nM; in test [5], 99.6 ± 2.34 nM; in test [6], 56.6 ± 0.84 nM; in test [7], 120 ± 9 nM.

For `C#CCOc1ccc(C(=O)C(=C)CC)c(Cl)c1Cl` [Compound 10], the IC50 in test [1] (HL60 leukemia cells, 72 h, MTS) amounted to 580 ± 40 nM.

With `C=C(CC)C(=O)c1ccc(OCC(=O)NCCCC)cc1O` [Compound 7, N-Butyl-2-(3-hydroxy-4-(2-methylenebutanoyl)phenoxy)acetamide], the IC50 in test [8] was 1510 ± 363 nM; in test [2], 920 ± 20 nM; in test [3] it was 850 ± 110 nM; in test [4] it was 485 ± 20.9 nM; in test [5], 1610 ± 355 nM; in test [1] (HL60 leukemia cells, 72 h, MTS), 1700 ± 520 nM. Moreover, the results for the IC50 in test [6] and in test [7] were 285 ± 67.8 nM and 528 ± 16.9 nM, respectively. Also, the “Selectivity index (SI) MRC5/SKOV3” value in test [8] is 0.56. In test [2], the “Selectivity index (SI) MRC5/HCT116” value is reported as 0.93. In addition, the “Selectivity index (SI) MRC5/PC3” value in test [4] came out at 1.75. Also, in test [5], the “Selectivity index (SI) MRC5/U87-MG” value amounted to 0.52. Moreover, in test [1], the “Selectivity index (SI) MRC5/HL60” value is 0.50. Also, the “Selectivity index (SI) MRC5/A549” value in test [6] came out at 2.98. The “Selectivity index (SI) MRC5/MCF7” value in test [7] was determined as 1.60.

Turning to `C=C(CC)C(=O)c1ccc(OCC(=O)NCCCC)c(Cl)c1Cl` [Compound 9, N-Butyl-2-(2,3-dichloro-4-(2-methylenebutanoyl)phenoxy)acetamide], the “IC50 antiproliferative activity against HL60” value in test [1] (HL60 leukemia cells, 72 h, MTS) was “inactive”.

Take `C#CCOc1ccc(C(=O)C(=C)CC)c(O)c1` [Compound 8, 1-(2-Hydroxy-4-(prop-2-yn-1-yloxy)phenyl)-2-methylenebutan-1-one]: the IC50 amounted to 138 ± 53.8 nM in test [8]; 1260 ± 80 nM in test [2]; 350 ± 40 nM in test [3]; 68.7 ± 3.7 nM in test [4]; 369 ± 50.1 nM in test [5]; 15 ± 6 nM in test [1] (HL60 leukemia cells, 72 h, MTS). Moreover, the IC50 in test [6] was found to be 41.2 ± 1.88 nM; in test [7] it was 61.5 ± 0.9 nM. In addition, the “Selectivity index (SI) MRC5/SKOV3” value in test [8] was 2.53. Moreover, the “Selectivity index (SI) MRC5/HCT116” value in test [2] came out at 0.27. In addition, the “Selectivity index (SI) MRC5/PC3” value in test [4] is listed as 5.09. Further, the “Selectivity index (SI) MRC5/U87-MG” value in test [5] was found to be 0.94. The “Selectivity index (SI) MRC5/HL60” value in test [1] turned out to be 23.33. Further, the “Selectivity index (SI) MRC5/A549” value in test [6] worked out at 8.49. The “Selectivity index (SI) MRC5/MCF7” value in test [7] is given as 5.69.
